# Experimental data: patent US20230151100A1, “Method of Selecting Patients for Treatment with a Combination of an AXL Inhibitor and an Immune Checkpoint Modulator” (BERGENBIO ASA, priority 2020, published 2023)
# Experiments:
# [1] = test system: Kras^G12D, p53^−/− STK11^−/− mutant (KPL9-3) mouse lung cancer-derived cells; experiment: Subcutaneous KPL9-3 tumors in immune-competent mice, tumor volume; format: in vivo, mouse (C57Bl/6); conditions: anti-PD1 10 mg/kg i.p. twice a week for two weeks, BGB324 50 mg/kg oral gavage twice daily, or both
# Experimental: Kras^G12D, p53^−/− mutant (KP9-1) or Kras^G12D, p53^−/− STK11^−/− mutant (KPL9-3) mouse lung cancer-derived cell lines were prepared using standard techniques known in the art. KP9-1 or KPL9-3 cells were propagated at sub-confluence and split on a regular basis.
# Each animal was weighed before cell implantation. Injection of cells was performed after anesthetizing of the mice. The cell lines discussed above were injected subcutaneously into immune-competent mice (C57Bl/6 strain).
# Mice were treated with either placebo or anti-PD1 therapeutic (200 μg/mouse, intraperitoneal, twice a week for two weeks).Tumor volume was assessed using hand held callipers and mouse weight were followed.
# The Kras^G12D, p53^−/− STK11^−/− mutant (KPL9-3) mouse lung cancer-derived cells described above were implanted subcutaneously in immune-competent mice (C57Bl/6 strain) using the same protocol as described above.
# Mice were treated with either placebo, anti-PD1 therapeutic (10 mg/kg, intraperitoneal, twice a week for two weeks), BGB324 (50 mg/kg, oral gavage, twice daily) or a combination of both drugs. Tumor volumes were measured.
# [2] = test system: TCF1^+PD-1^+ CD8^+ T cells in KPL9-3-1 tumors; experiment: Tumor microenvironment analysis of KPL9-3-1 tumors (flow cytometry, IHC); format: in vivo, mouse (C57BL/6J)
# Experimental: (§1) Control group were treated with control IgG (10 mg/kg) and vehicle (50 mg/kg). Tumor growth was measured every 3 days. […] The ratio of observed cell numbers to random expectation estimated by Roie index through chi-square test. +++ (Roien, P<0.05) represents highly enriched, ++ (1.2≤Ro/e<3, P<0.05) represents enriched, + (0.8≤Ro/e<1.2, P<0.05) represents weakly enriched, − (0<Ro/e<0.8, P<0.05) represents not significant or reduced.
# KPL9-3-1 allograft were implanted into mice as described above. 5 mice were assigned into each treatment group. 10 mg/kg anti-PD-1 (BioXCell, Cat #BE0146) treatment was given intraperitoneally on day 0, day 4 and day 7 after treatment. Control group of PD-1 treatment was treated with 10 mg/kg rat IgG2a isotype control (BioX Cell, Cat #BE0089) at the same day of PD-1 treatment, intraperitoneally. BGB324 were given through oral gavage twice daily, with a dose of 50 mg/kg.
# For tumor growth measurement experiment, mice were treated for 3 weeks. For tumor microenvironment analysis, mice were treated for 7 days, when the tumor sizes in each treatment group are within 2-fold differences.Seven days after tumor inoculation, mice were treated with either BGB324 or anti-PD-1 alone, or in combination.
# [3] = test system: CD8^+ T cell clusters in KPL9-3-1 TME; experiment: scRNAseq with paired TCR sequencing of CD8^+ T cell clusters in KPL9-3-1 tumors; format: in vivo, mouse; conditions: observed versus expected cell number per cluster
# Experimental: The immune landscape of the tumors from each treatment group was assessed using scRNAseq of immune cells. Sequenced scRNA-seq samples were processed through Cellranger pipelines (v3.1.0). Cellranger count was used to align reads to mouse reference genome (mm10, 2020-A, from 10× Genomics) and generate single cell feature counts for single library.
# For scTCR-seq data, TCR reads were aligned to reference genome and TCR annotation was performed using the 10×cellranger vdj pipeline with provided reference (cellranger-vdj-GRCm38-alts-ensemb1-4.0.0). Overall, 94% of T cells in scRNA-seq data were assigned a TCR and more than 70% had at least one full-length productive CDR3 for both TRA and TRB. The clonotype of each T cell was represented by the beta CDR3 sequences, and clone sizes ranged from 1 cell to 580 cells. Cellranger aggr were applied next to aggregate each sample library for grouped analysis with same effective sequencing depth. Seurat (3.2.1) package was used for downstream analysis.
# To determine the potential lineage differentiation between those T cell populations with high TCR sharing. Monocle (version 2.0) (PMID: 24658644) was used to investigate transcriptional and developmental trajectories concerning different CD8+ or CD4+ T cell clusters. The data of raw counts together with cluster annotations were taken as input to monocle, and the default parameters were set to run data normalization and dimension reduction. Next, Monocle leaned the kinetics of gene expression by using the reversed graph embedding approach and places each cell along an inferred pseudotime trajectory. According to the assumption that the trajectory has a tree structure, functional “State” is identified based on the segment of the tree-like structure. […]
# Treatment enriched cells in each cluster were calculated and compared based on the number of cells observed divided by expected number of cells in each cluster (FIG. 8D).
# OT-1 CD8^+ T cells = experiment: BMDC co-culture with OT-1 CD8^+ T cells stimulated with ovalbumin, TCF1 expression by flow cytometry; format: cell-based, mouse; conditions: co-cultures of BMDC with OT-1 CD8^+ T cells stimulated by ovalbumin
# [4] = test system: Kras^G12D, p53 WT STK11^−/− mutant human A549 lung cancer cells; experiment: A549 xenografts in humanized mice, tumor volume; format: in vivo; conditions: anti-PD1 10 mg/kg i.p. 3 dosages, BGB324 50 mg/kg oral gavage twice daily for 3 weeks, or both
# Experimental: Human non-small cell lung cancer (NSCLC) cells Kras^G12D, p53 WT STK11^−/− mutant human A549 lung cancer cells were cultured using standard protocols.
# Each animal was weighed before cell implantation. Injection of the cells was performed after anesthetizing of the mice. Kras^G12D, p53 WT STK11^−/− mutant human A549 lung cancer cells were implanted subcutaneously in humanized immune-deficient mice.
# Mice were treated with either placebo, anti-PD1 therapy (10 mg/kg, intraperitoneal, 3 dosages), BGB324 (50 mg/kg, oral gavage, twice daily for 3 weeks) or a combination of both drugs.
# [5] = test system: Bone marrow derived BMDCs; experiment: BMDC co-culture with irradiated KPL9-3-1 tumor cells, IFN beta ELISA; format: cell-based, mouse; conditions: BGB324 40 nM, 24 h; supernatant ELISA; versus DMSO
# Experimental: Bone marrow derived BMDCs (2×10^5) were co-cultured with […] irradiated KPL9-3-1 tumor cells (2×10^6), with or without BGB324 treatment (40 nM). After 24 h, the cell supernatant was collected for analysis. The concentration of […] was measured by VeriKine-HS Mouse IFN Beta Serum ELISA kit (PBL Assay Science, Cat #42410), or VerKine Human IFN Beta ELISA kit (PBL Assay Science, Cat #414101) in accordance with the manufacturer's instructions. The plates were visualized by adding 100 μL of TMB solution and read at 450 nm using the SPECTROstarNano (BMG LABTECH).
# The cells were treated with BGB324 or DMSO.
# KPL9-3-1 tumor cells = experiment: KPL9-3-1 subcutaneous allograft tumor growth; format: in vivo, mouse (C57BL/6J); conditions: KPL9-3-1 tumors; BGB324 50 mg/kg oral gavage twice daily, anti-PD-1 10 mg/kg i.p., alone or in combination; 3 weeks
# Experimental: as §1
# For subcutaneous allografts, 1×10^6 cells in 100 ul phosphate buffered saline (PBS) were injected into the right dorsal flanks of 6-8 wks old mice. For xenografts growing on humanized mice, 1.5×10^6 cells in 100 ul phosphate buffered saline (PBS) were injected into the right dorsal flanks of reconstituted humanized mice.
# Tumor bearing mice were randomly assigned into treatment groups when the tumor grew to around 100-150 mm^3. For each treatment group, 5 mice were assigned. 10 mg/kg anti-PD-1 (BioXCell, Cat #BE0146) treatment was given intraperitoneally on day 0, day 4 and day 7 after innoculation. The control group was treated with 10 mg/kg rat IgG2a isotype control (BioX Cell, Cat #BE0089) at the same day of PD-1 treatment, intraperitoneally. For the tumor growth measurement experiment, mice were treated for 3 weeks. […] Tumor volumes were measured by length (a), width (b) and height (h) in every 3 days and calculated as tumor volume=abh. […]
# [6] = test system: TCF1^+PD-1^+ cells among CD8^+ TILs; experiment: Intratumoral injection of IFNα, TCF1^+PD-1^+ CD8^+ TILs; format: in vivo, mouse; conditions: IFNα 200 ng intratumoral, 48 h
# Experimental: Tumor tissues were excised and digested with 2 mg/mL Collagenase A (Sigma, Cat #SCR136) and 1 mg/ml DNase I (Roche, Cat #11284932001) under 37° C., 150 rpm shaking speed for 45 min. Digested materials then were transferred to a 70 μm cell strainer to remove clumped cells. Digested cells were washed twice with FACs buffer and ready for flow cytometry analysis.
# [7] = test system: non-small cell lung cancer; experiment: Earlier lines of therapy of trial patients 234008 and 211105 (case history); format: in vivo, human
compound,measurement,setting,value
"Nc1nc(Nc2ccc3c(c2)CC[C@@H](N2CCCC2)CC3)nn1-c1cc2c(nn1)-c1ccccc1CCC2 [BGB324, 1-(6,7-dihydro-5H-benzo[6,7]cyclohepta[1,2-c]pyridazin-3-yl)-N^3-((7-(S)-pyrrolidin-1-yl)-6,7,8,9-tetrahydro-5H-benzo[7]annulene-2-yl)-1H-1,2,4-triazole-3,5-diamine]",tumor sensitivity to therapy (tumor volume),[1],resistant
same,infiltration of TCF1+PD-1^+ CD8^+ T cells,"[2]; flow cytometry, day 7 after treatment started",increased
same,TCF1^+PD-1^+ CD8^+ T cell presence in the tumor,[2]; immunohistochemistry,enhanced
same,distribution of CD8+ cells relative to tumor islands,[2]; immunohistochemistry,"large population of CD8+ cells, but these are grouped together, excluded from the tumor islands"
same,enrichment of clonal expanded CD8^+ T cells (unique TCRs),[3],enriched CD8^+ T cells expressing unique TCRs (clonal expanded) significantly
same,enrichment of exhaustive effector CD8^+ T cells,[3],also enriched
same,enrichment of stem like T cells,[3],also enriched
same,TCF1^+ expression on CD8^+ T cells,OT-1 CD8^+ T cells,increased
same,tumor sensitivity to therapy (tumor volume),[4],resistant
same,secretion of Interferon type 1β (IFNβ),[5],increased
same,tumor growth control,KPL9-3-1 tumor cells,Neither single treatment resulted in tumor growth control
IFNα [reference compound],TCF1^+ expression on CD8^+ T cells,OT-1 CD8^+ T cells,increased
same,TCF1^+PD-1^+ cells among CD8^+ TILs after intratumoral injection,[6],phenocopied
carboplatin and paclitaxel,duration of response to first-line therapy before progression,[7]; patient 234008,22 months
same,response to first-line therapy,"[7]; patient 234008, before enrolling in the study",partial response
"pembrolizumab: anti-PD-1 antibody, immune checkpoint inhibitor",duration of clinical benefit before progression,"[7]; patient 211105, monotherapy after first-line progression",18 months
